Test system: C57BL/6 mice
Assay: Delayed-type hypersensitivity (DTH) ear swelling response after Influvac vaccination in diet-supplemented mice
Format: in vivo, mouse
Procedure: The effect of diets comprising 2′-FL and/or betagalacto-oligosaccharides was tested in a mouse model wherein a response to an antigen is measured by a delayed-type hypersensitivity (DTH) response. This DTH response in the ears after local challenge with an antigen present in a vaccine is a measure of Th1 cell proliferation. During response to infection and/or vaccination Th1 cells proliferate in response to the challenge with the antigen. These Th1 cells infiltrate the ear when the ear is subsequently challenged with the antigen and cause swelling. Infiltration with the Th1 cells in the ear takes about 24 h and the swelling is therefore delayed. The more Th1 cells proliferated during initial vaccination and/or infection, the more DTH upon challenging with the antigen is observed.
6-8 Weeks old female C57BL/6 mice (Charles River) received semi-purified AIN-93G-based diets (Research Diet Service, Wijk bij Duurstede, the Netherlands), comprising
1) 1 wt % betagalacto-oligosaccharide (GOS, source Vivinal GOS, Borculo Domo), fructo-oligosaccharide (FOS, Source RaftilineHP, Orafti) and galacturonic acid oligosaccharide (source AOS) in a 9:1:1.1 ratio. AOS were produced from pectin (Südzucker AG, Mannheim, Germany), with a DP of 1-20. It consists of approximately 75% galacturonic acid oligomers, based on total weight,
2) 1 wt % 2′fucosyllactose (2′-FL),
3) 1 wt % betagalacto-oligosaccharides, fructo-oligosaccharides and galacturonic acid oligosaccharide (AOS) in a 9:1:1.1 ratio and 1 wt % 2′-FL.
4) 0.5 wt % betagalacto-oligosaccharides, fructo-oligosaccharides and galacturonic acid oligosaccharide (AOS) in a 9:1:1.1 ratio and 0.5 wt % 2′-FL.
All groups were compared to the unsupplemented control diet (control and sham control group). Dietary supplementation started 14 days before the first vaccination and lasted until the end of the experiment, 31 days after the first vaccination.
Vaccination experiments were performed using Influvac (Solvay Pharmaceuticals, Weesp, the Netherlands) from season 2005/2006. The mice received a primary vaccination and a booster vaccination, consisting of a subcutaneous (sc) injection of a 1:1 mix of vaccine and adjuvant in a total volume of 100 μl. The booster vaccination was given at 21 days after the primary vaccination. The experiments ended 10 days after booster vaccination. Negative control groups that were included received injections with a 1:1 mix of PBS and adjuvant in a total volume of 100 μl (sham control). Ear thickness was measured in duplicate before vaccine challenge and 24 h thereafter, using a digital micrometer (Mitutoyo Digimatic 293561, Veenendaal, the Netherlands). The DTH response was calculated by subtracting the basal ear thickness from the value at 24 h after challenge.

Q: Which results are given for 2′-fucosyllactose [1% 2′-FL]?
A: increase of DTH response (compared with control diet): 71%; effect on ear swelling / DTH response (in words) (compared with control-fed animals): increased ear swelling; Δ DTH (ear swelling DTH minus sham control): 80.4 μm; Relative DTH (Δ DTH relative to control diet (=1)): 1.71

Source: patent US11090321B2, “Mixture of non-digestible oligosaccharides for stimulating the immune system” (N.V. Nutricia, priority 2009, dated 2021)
